# Measurements published in patent US9358096B2, “Methods of treatment with drug eluting stents with prolonged local elution profiles with high local concentrations and low systemic concentrations” (Abbott Laboratories, priority 2007, dated 2016).
# Read-outs that look alike come from different tables or passages of the source.
# Test: everolimus arterial tissue concentration in and next to the stented vessel
# Format: in vivo, swine
# Conditions: for Tmax: pig; for concentration at 3 days / concentration at 7 days / concentration at 28 days / concentration at 56 days / concentration at 90 days / concentration at 14 days: swine
# [1] = 8×28 mm stent, 1070 μg everolimus (first aspect, matches group 1)
# [2] = 10×28 mm stent, 1070 μg everolimus
# [3] = 1070 μg, 8.0×28 mm stent, group 2, 1070 μg Lot #2, read-out: drug concentration in tissue proximal to stented region
# [4] = 3209 μg, 8.0×28 mm stent, group 3, 3209 μg, read-out: drug concentration in tissue distal to stented region
# [5] = 3209 μg, 8.0×28 mm stent, group 3, 3209 μg, read-out: drug concentration in tissue proximal to stented region
# [6] = arterial tissue distal to stented region (unstented), 1070 μg, 10.0×28 mm stent, 1070 μg, read-out: drug concentration in tissue distal to stented region
# [7] = arterial tissue of stented region, 1070 μg, 8.0×28 mm stent, group 2, 1070 μg Lot #2, read-out: drug concentration in tissue of stented region
# [8] = arterial tissue of stented region, 1070 μg, 10.0×28 mm stent, 1070 μg, read-out: drug concentration in tissue of stented region
# [9] = arterial tissue of the stented region, other: drug-eluting stent implanted in iliofemoral arteries, 1070 μg, 10.0×28 mm stent, 1070 μg, read-out: drug concentration in tissue of stented region
# [10] = arterial tissue proximal to stented region (unstented), 1070 μg, 10.0×28 mm stent, 1070 μg, read-out: drug concentration in tissue proximal to stented region
# [11] = arterial tissue, distal stented region (D), 7.0×100 mm stent, read-out: Mean Arterial Tissue Concentration, D distal stented region
# [12] = arterial tissue, medial stented region (C), 7.0×100 mm stent, read-out: Mean Arterial Tissue Concentration, C medial stented region
# [13] = arterial tissue, proximal stented region (B), 7.0×100 mm stent, read-out: Mean Arterial Tissue Concentration, B proximal stented region
# [14] = arterial tissue, stented region, 3209 μg, 8.0×28 mm stent, group 3, 3209 μg, read-out: drug concentration in tissue of stented region
# [15] = arterial tissue, unstented segment distal to stented region, 1070 μg, 8.0×28 mm stent, group 2, 1070 μg Lot #2, read-out: drug concentration in tissue distal to stented region
# [16] = other: drug-eluting stent implanted in iliofemoral arteries, 1070 μg, 10.0×28 mm stent, 1070 μg, read-out: drug concentration in tissue distal to stented region
# [17] = other: drug-eluting stent implanted in iliofemoral arteries, 1070 μg, 10.0×28 mm stent, 1070 μg, read-out: drug concentration in tissue proximal to stented region
smiles,measurement,setting,value
"CO[C@H]1C[C@@H]2CC[C@@H](C)[C@@](O)(O2)C(=O)C(=O)N2CCCC[C@H]2C(=O)O[C@H]([C@H](C)C[C@@H]2CC[C@@H](OCCO)[C@H](OC)C2)CC(=O)[C@H](C)/C=C(\C)[C@@H](O)[C@@H](OC)C(=O)[C@H](C)C[C@H](C)/C=C/C=C/C=C/1C [everolimus, 40-O-(2-hydroxyethyl)-rapamycin]",tissue Cmax,"7×100 mm stent, 3777 μg everolimus",≥ 16347 ng/g
same,tissue Cmax,[1],≥ 12946 ng/g
same,tissue Tmax,[1],72 h
same,tissue Cmax,"8×28 mm stent, 1070 μg everolimus (second aspect, matches group 2)",≥ 8709 ng/g
same,tissue Cmax,"8×28 mm stent, 3209 μg everolimus",≥ 22027 ng/g
same,tissue Cmax,[2],≥ 6607 ng/g
same,tissue Tmax,[2],72 h
same,Tmax,"arterial tissue of the stented vessel, 1070 ug, 8×28 mm stent, 1070 μg everolimus (second aspect, matches group 2)",72 h
same,Tmax,"arterial tissue of the stented vessel, 3209 ug, 8×28 mm stent, 3209 μg everolimus",72 h
same,Tmax,"arterial tissue, 3777 ug, 7×100 mm stent, 3777 μg everolimus",72 h
same,concentration at 3 days,[3],533 ng/g
same,concentration at 7 days,[3],104 ng/g
same,concentration at 28 days,[3],50 ng/g
same,concentration at 56 days,[3],10 ng/g
same,concentration at 90 days,[3],16 ng/g
same,concentration at 3 days,[4],856 ng/g
same,concentration at 3 days,[5],520 ng/g
same,concentration at 7 days,[4],910 ng/g
same,concentration at 7 days,[5],698 ng/g
same,concentration at 14 days,[4],1120 ng/g
same,concentration at 14 days,[5],307 ng/g
same,concentration at 28 days,[4],414 ng/g
same,concentration at 28 days,[5],136 ng/g
same,concentration at 90 days,[4],63 ng/g
same,concentration at 90 days,[5],55 ng/g
same,concentration at 7 days,[6],208 ng/g
same,concentration at 14 days,[6],251 ng/g
same,concentration at 28 days,[6],86 ng/g
same,concentration at 3 days,[7],8710 ng/g
same,concentration at 7 days,[7],3590 ng/g
same,concentration at 28 days,[7],1850 ng/g
same,concentration at 56 days,[7],2190 ng/g
same,concentration at 90 days,[7],1270 ng/g
same,concentration at 14 days,[8],4140 ng/g
same,concentration at 28 days,[8],3930 ng/g
same,concentration at 3 days,[9],6610 ng/g
same,concentration at 7 days,[9],5100 ng/g
same,concentration at 90 days,[9],2300 ng/g
same,concentration at 14 days,[10],40 ng/g
same,concentration at 28 days,[10],12 ng/g
same,concentration at 3 days,[11],12400 ng/g
same,concentration at 7 days,[11],9630 ng/g
same,concentration at 14 days,[11],6530 ng/g
same,concentration at 28 days,[11],4280 ng/g
same,concentration at 90 days,[11],2400 ng/g
same,concentration at 3 days,[12],16300 ng/g
same,concentration at 7 days,[12],11400 ng/g
same,concentration at 14 days,[12],5240 ng/g
same,concentration at 28 days,[12],4150 ng/g
same,concentration at 90 days,[12],2700 ng/g
same,concentration at 3 days,[13],10900 ng/g
same,concentration at 7 days,[13],7890 ng/g
same,concentration at 14 days,[13],4820 ng/g
same,concentration at 28 days,[13],3620 ng/g
same,concentration at 90 days,[13],2210 ng/g
same,concentration at 3 days,[14],22000 ng/g
same,concentration at 7 days,[14],17200 ng/g
same,concentration at 14 days,[14],16500 ng/g
same,concentration at 28 days,[14],13200 ng/g
same,concentration at 90 days,[14],2460 ng/g
same,concentration at 3 days,[15],1550 ng/g
same,concentration at 7 days,[15],435 ng/g
same,concentration at 28 days,[15],73 ng/g
same,concentration at 56 days,[15],25 ng/g
same,concentration at 90 days,[15],11 ng/g
same,concentration at 3 days,[16],278 ng/g
same,concentration at 3 days,[17],100 ng/g
same,concentration at 7 days,[17],37 ng/g
same,concentration at 90 days,[16],8 ng/g
same,concentration at 90 days,[17],7 ng/g
same,concentration at 3 days,"7.0×100 mm stent, read-out: Mean Arterial Tissue Concentration, A non-stented region proximal to stented region",269 ng/g
same,concentration at 3 days,"7.0×100 mm stent, read-out: Mean Arterial Tissue Concentration, E non-stented region distal to stented region",263 ng/g
